For series [1], the system named is MCF7. Put plainly: MTT antiproliferative assay, MCF7 non-TNBC cells. Type of series: cell-based. The following applies: mean of three independent experiments. As for the experimental part:
(§1) Compounds 2, 4, 8 and 9, as well as paclitaxel (PTX) were evaluated over a range of concentrations to examine their antiproliferative activities against two non-TNBC cell lines, MCF7 and SKBR3using the well-established 3-(4,5-dimethylthiazolyl-2)-2,5-diphenyl tetrazolium bromide (MTT) assay.^48,55,56 The parent non-deuterated VNLG-152R (Compound 2) was used as the positive control.
(§2) As presented in Table 1 below, the GI50 values of the deuterated Compounds 4, 8 and 9 against the MCF7 cell are identical to the GI50 value of the parent protio VNLG-152R (Compound 2). In contrast, the SKBR3 cell appears to be more sensitive to the deuterated compounds compared to the parent non-deuterated VNLG-152R (Compound 2). The reason for this difference is not understood at this time. The applicant hypothesizes that the enhanced diffusion of these deuterated molecules across the cell membrane of this cell line may result in enhanced intracellular concentrations and inhibition of its proliferation. Each data point is a mean of replicates from three independent experiments.

For series [2], the system named is Mnk1, peIF4E, cyclin D1 in MDA-MB-231 cells. Kind of series: Western blotting of Mnk1 and downstream targets in MDA-MB-231 cells (mechanism study). Format: cell-based, human. The following applies: MDA-MB-231, 24 hours, FIG. 14B. As for the experimental part: FIGS. 14A and 14B show the in vitro effects of VNLG-152R on synoviolin 1 (SYVN1) and other targets in MDA-MB-231 cells.
After confirming the anti-tumor effect of VNLG-152R, the molecular mechanism of VNLG-152R was studied, in order to help identify potential new molecular targets for treatment. Using an established procedure^70,71, a label-free proteomics analysis was conducted. MDA-MB-231 cells were treated for 24 hours with VNLG-152R in the concentrations indicated in FIGS. 14A and 14B, followed by Western blotting of whole cell lysates.
For orientation: Immunoblotting shows a protein as a band on a membrane.

Series [3] has as its system SKBR3. Kind of series: MTT antiproliferative assay, SKBR3 non-TNBC cells. Type of series: cell-based. Conditions: mean of three independent experiments. As for the experimental part: as §1, §2
(In general: Tetrazolium dyes change colour on reduction, which living cells bring about.)

In series [4] the test system is MDA-MB-231 tumor xenograft. Kind of series: Anti-tumor activity in MDA-MB-231 xenograft mouse model. Format: in vivo. Conditions: 20 mg/kg, PO, 5 days/week, 16 days. As for the experimental part:
(§3) FIGS. 13A-13D show the anti-tumor activity of VNLG-152R, Compound 4, Compound 8, and Compound 9 in xenograft mouse models. […] In FIGS. 13B and 13D, *=p<0.0001.
(§4) After confirming the improved pharmacokinetic parameters of deuterated compounds 4, 8, and 9, the anti-tumor activity of these compounds was tested in xenograft models of MDA-MB-231 and MDA-MB-468. In both models, the mice for each group were treated with either vehicle (control) or the compounds, each at 20 mg/kg, PO, 5 days/week.

Series [5] deals with androgen-sensitive and castration-resistant human prostate cancer cells. Conditions: androgen-sensitive and castration-resistant human prostate cancer cells in vitro; cited from earlier work.
Series [6] in a line: Plasma pharmacokinetics after single oral dose in female CD-1 mice. Type of series: in vivo. Here is the method:
The PK study was performed by the Certified Research Organization (CRO), Aragen Life Sciences Private Limited (Aragen), Hyderabad, India. All procedures of the present study were in accordance with the guidelines provided by the Committee for the Purpose of Control and Supervision of Experiments on Animals (CPCSEA) as published in The Gazette of India, Jan. 7, 2010. CPCSEA renewal number for institute is 1125/PO/Rc/S/CPCSEA on 13Feb. 2014. Institutional Animal Ethics Committee (IAEC) approval has been taken to initiate the study (IAEC Approval Number: B-011A). The details are presented in the Supplementary Materials.
To minimize the number of mice used in the PK study using a validated LC/MS/MS analysis, both individual (discrete) (set #1: Compound 5, EM=463.2937 and set #2: […], EM=463.2937) and cassette (set #3: Compounds 2, 3, and 7; EMs=459.2686, 462.2874 and 466.3125, respectively, and set #4: Compounds 4, 8, and 9; EMs=460.2749, 464.2999 and 467.3188, respectively) dosing were used.^59,66 The four sets studied were dictated by the exact molecular masses of the compounds as indicated above and in FIG. 3.
The plasma PK profiles were obtained after single oral (PO) dosing of the compounds in mice.
In Table 2, data are presented as the mean of values obtained from three female CD-1 mice. Cmax is the maximum observed plasma concentration. Tmax is the time to maximum concentration. T1/2 is the elimination half-life. AUC represents AUC (0-∞), which is the area under the concentration-time curve from time of dosing extrapolated to infinity. MRT refers to mean residence time. The number in parentheses indicate the rank order from best (1) to worst (8).

Series [7] relates to Mnk1, peIF4E, eIF4E, cyclin D1, Bcl-2, Bax in MDA-MB-231 cells. Put plainly: Western blotting of Mnk1 and downstream targets in MDA-MB-231 cells. Type of series: cell-based, human. Conditions: MDA-MB-231, 5, 10 and 20 µM, 24 h, Western blot. An excerpt:
The applicant had previously reported that the antiproliferative effects of Compound 1 and our other Mnk1/2 degraders in breast cancer cells was due to degradation of Mnk1/2 with consequent depletion of peIF4E and modulation of the downstream molecular targets.^48,55,56 Thus, the deuterated analogs were further examined for their effects on the degradation of Mnk1 and the other related downstream molecular targets in both MDA-MB-231 and MDA-MB-468 TNBC cells by Western blotting analysis.
The human breast cancer cell lines, MDA-MB-231, MDA-MB-468 were procured from ATCC (Manassas, VA) and cultured in the recommended media supplemented with 10% heat-inactivated standard fetal bovine serum (FBS, GIBCO) and 1% penicillin-streptomycin (10,000 U/ml, Life Technologies) at 37° C. and 5% CO2. Primary antibodies against Mnk1, eIF4E, p-eIF4E, Cyclin D1, BCL2, BAX, β-actin, and secondary RP-conjugated anti-rabbit used in the study were procured from Cell Signaling Technology, USA. Cells were lysed with radioimmunoprecipitation assay (RIPA) buffer supplemented with 1× protease inhibitors (Roche, Indianapolis, IN, USA), phosphatase inhibitors (Thermo Scientific, Waltham, MA, USA), 1 mmol/L EDTA and 1 mmol/L PMSF (Sigma) and immunoblotting analyses were performed as described previously.^48,64
The non-deuterated VNLG-152R (Compound 2) and the vehicle, DMSO were used as positive and negative controls, respectively. Equal protein concentrations from breast cancer cells treated with the compounds at different concentration (5, 10 and 20 µM) for 24 h were separated by SDS-PAGE and Western blots probed with the respective protein antibodies. Vehicle treated cells were included as a control, and all blots were reprobed for R-actin for loading control.

Series [8] relates to MDA-MB-468 tumor xenograft. Put plainly: Anti-tumor activity in MDA-MB-468 xenograft mouse model. Type of series: in vivo. The following applies: 20 mg/kg, PO, 5 days/week, 16 days. As for the experimental part:
as §3, §4

Where [9] appears, read: single p.o. dose 10 mg/kg, female CD-1 mice, plasma.

`CC1=C(/C=C/C(C)=C/C=C/C(C)=C/C(=O)Nc2ccc(F)cc2)C(C)(C)CCC1n1ccnc1` (racemic) [Compound 2, (±) 4-Imidazolyl-4(H)-(4′-fluoro(phenyl))-(E)-retinamide] showed a GI50 in series [1] of 0.35 ± 0.11 µM. Moreover, in series [2], the Mnk1 level entry is on record as “dose-dependent Mnk1 depletion”, the “cyclin D1 level” value is on record as “suppression” and the peIF4E level result is recorded as “suppression”. Besides, the GI50 in series [3] turned out to be 0.26 ± 0.12 µM. Also, in series [4], the “reduction of tumor growth” value worked out at 87%. In addition, the “anti-proliferative and anti-metastatic activities” value in series [5] is “potent”. Also, the “clearance from systemic circulation (plasma concentration versus time profile)” value in series [6] (single PO dosing, mice, FIGS. 12A-12C) is “could not be detected after 8 hours”. Further, in series [6] (setting [9]), the “AUC (0-∞)” value was found to be 22764.75 ng·h/mL, the “MRT (mean residence time)” value came to 3.02 h, the “T1/2 (elimination half-life)” value came to 3.61 h and the Tmax amounted to 0.83 h. This molecule also yielded a Cmax in series [6] (single p.o. dose 10 mg/kg, female CD-1 mice, plasma, mean of three mice) of 4651.88 ng/mL. In addition, in series [7], the “expression of Mnk1” value was “significantly and dose-dependently reduced”; the “expression of peIF4E” value is “significantly and dose-dependently reduced”; the “expression of total eIF4E” value is reported as “without noticeable effects”. Further, in series [8], the “reduction of tumor growth” value was determined as 81%.

Broadly, the GI50 is the concentration that inhibits growth by half. The low end stands for more potent growth inhibition, the high end for less potent growth inhibition. For orientation: Tmax means the time at which the peak concentration occurs. Usually Cmax stands for the maximum level reached in the sampled fluid or tissue.

Source of the values: patent publication US20250179029A1, “DEUTERATED RETINOIDAL COMPOUNDS AND SYNTHESIS AND USES THEREOF” (UNIVERSITY OF MARYLAND, BALTIMORE, priority 2022, published 2025).
